Laboratory results published in patent US20240197729A1, “ALK-5 Inhibitors and Uses Thereof” (Sumitomo Pharma Oncology, Inc., priority 2021, published 2024).

Key:
[1] = test system: phospho-SMAD-2 (Ser465/Ser467); experiment: A549 xenograft assay, p-SMAD2; type: in vivo, mice; details: for Average % p-SMAD2 (Ser 465/467) of vehicle: tumors 4 h after dosing; for efficacious dose derived from p-SMAD2 inhibition in the A549 xenograft mouse model: per oral gavage
Source text: (§1) To test compounds for inhibition of in vivo on-target activity (ALK5/TGF-bR1 inhibition) as well as potential Janus Kinase (JAK) signaling off-target activity, the A549 murine xenograft model was utilized. An ALK5 inhibitor (e.g., vactosertib) is expected to reduce the amount of the TGF-beta signaling molecule phospho-SMAD-2 (pSMAD2) in the A549 xenograft cells. The TGF-beta-mediated phosphorylation of SMAD2 in A549 cells takes place at amino acid residue four hundred and sixty-five and four hundred and sixty-seven (both are serine residues). A JAK inhibitor (e.g., ruxolitinib) is expected to reduce the phosphorylation of signal transducer and activator of transcription (STAT) proteins such as STAT3 at amino acid residue 705 (tyrosine).
(§2) At eight weeks of age, female athymic nude mice (purchased from Charles River) were injected with approximately 3.5 million A549 cells (ATCC, CCL-185). Specifically, cells were harvested and resuspended in plain RPMI media (no phenol red added) and Matrigel (Corning 356237) at a one to one ratio, and two hundred-microliters were injected into the right hind flank of each mouse. Tumors were measured every three days by caliper and as tumors reached an average of seventy-eighty millimeters cubed, mice were randomized in groups of three. All compounds were resuspended in 1-methyl-2-pyrrolidinone (Sigma 494496) (10%) plus 20% Solutol (Sigma 42966) in water (90%). Vactosertib and ruxolitinib were included as controls as ALK5 signaling inhibitor and JAK signaling inhibitor, respectively. Both controls were given at seventy-five milligrams per kilogram to three mice. The drug suspensions were sonicated for fifteen minutes to generate a fine particle suspension before being given to the mice. Mice were dosed (per oral gavage) with drug at one hundred, seventy-five, fifty, or ten milligrams per kilogram, with three mice per group. A vehicle control group with three mice was used to establish the baseline level of phospho-SMAD-2 in the tumor xenograft.
(§3) Four hours after drug administration, tumors were harvested, snap frozen and stored at negative eighty degrees Celsius until further processing. The phospho-SMAD-2 levels were determined using the Bio-Plex Pro™ Phospho-Smad2 (Ser465/Ser467) Set (BioRad 171V50019M). The phospho STAT3 levels were determined using the bead/antibody set from the MILLIPLEXMAP STAT Cell Signaling Magnetic Bead 5-Plex Kit (Millipore 48-610MAG). Both phospho SMAD-2 levels and phospho STAT3 levels were normalized to ß-Tubulin (MILLIPLEX MAP ß-Tubulin Total Magnetic Bead MAPmate™, Millipore 46-713MAG) or GAPDH (MILLIPLEX MAP GAPDH Total Magnetic Bead MAPmate™, Millipore 46-667MAG) levels from each sample. All analytes were analyzed in a multiplex fashion with the Bio-Plex Pro Cell Signaling Reagent Kit (BioRad 171304006M). Briefly, frozen tumor (fifteen to thirty milligrams) was lysed in 100 μl lysis buffer, processed in bead mill tube, and centrifuged. The resulting lysate was used at 1:50 dilution for the assay according to the manufacturer's instructions. Bead suspension was analyzed using the Luminex system (MAGPIX).

p-STAT3 (Tyr 705) = experiment: A549 xenograft assay, p-STAT3; type: in vivo, mice; details: tumors 4 h after dosing
Source text: as §1, §2, §3

[2] = test system: phospho-SMAD2 (S465/S467); experiment: Phospho-SMAD2 assay in RDSR cells; type: cell-based; details: Homo sapiens, 0.5 h, 100 ng/ml TGF-β1, 30 minutes
Source text: TGF-β is a pleiotropic cytokine involved in extremely conserved pathways relevant to cell growth, differentiation, and development. TGF-β signaling is triggered when the activated TGF-β homodimer binds to the TGF-β receptor 2 (TGFbR2), which in turn leads to the recruitment and phosphorylation of TGF-β receptor 1 (TGFbR1). Activated TGFbR1 phosphorylates the signal transduction molecules SMAD2 and SMAD3, which then bind to the common mediator SMAD4 and translocate to the nucleus where they alter gene transcription. In this assay, phospho-SMAD2 (S465/S467), a direct phosphorylation substrate of TGFbR1, was used as a readout of TGF-β pathway activity. Vactosertib (a TGFbR1 inhibitor available from MedChem Express HY-19928) was included as a positive control.
The RD SMAD reporter (RDSR) cell line was generated by stably integrating the SMAD reporter plasmid (Promega, pGL4.48[luc2P/SBE/Hygro]) into the human rhabdomyosarcoma cell line RD (ATCC, CCL-136).
RDSR cells were seeded in DMEM (ATCC30-2002)+10% FBS in 96-well plate and allowed to grow overnight at 5% CO2 and 37° C. The next day, cells were pre-treated with Compound 04, Compound 01 or vactosertib at various concentrations, or with vehicle (DMSO), for one hour. Cells were then stimulated with recombinant human TGF-β1 (R&D Systems 7754-BH-005) at a final concentration of 100 ng/ml, in the presence of Compound 04, Compound 01, vactosertib, or DMSO for thirty minutes. A no-TGF-β1 stimulation condition was included for baseline phospho-SMAD2 level measurement.
The phospho-SMAD2 levels were determined using the Bio-Plex Pro™ Phospho-Smad2 (Ser465/Ser467) bead/antibody set (BioRad 171V50019M). Phospho-SMAD2 levels were normalized to ß-tubulin (MILLIPLEX MAP ß-Tubulin Total Magnetic Bead MAPmate™, Millipore 46-713MAG) or GAPDH (MILLIPLEX MAP GAPDH Total Magnetic Bead MAPmate™, Millipore 46-667MAG) levels from each sample. All samples were analyzed in a multiplex fashion with the Bio-Plex Pro Cell Signaling Reagent Kit (BioRad 171304006M). […] Bead suspension was analyzed using the Luminex system (MAGPIX). […]

Structure (SMILES) | Average % p-SMAD2 (Ser 465/467) of vehicle ([1]; 10 mg/kg per oral gavage) [%] | Average % p-SMAD2 (Ser 465/467) of vehicle ([1]; 50 mg/kg per oral gavage) [%] | Average % p-SMAD2 (Ser 465/467) of vehicle ([1]; 75 mg/kg per oral gavage) [%] | Average % p-SMAD2 (Ser 465/467) of vehicle ([1]; 100 mg/kg per oral gavage) [%] | efficacious dose derived from p-SMAD2 inhibition in the A549 xenograft mouse model [1] | Average % p-STAT3 (Tyr 705) of vehicle (p-STAT3 (Tyr 705); 10 mg/kg per oral gavage) [%] | Average % p-STAT3 (Tyr 705) of vehicle (p-STAT3 (Tyr 705); 50 mg/kg per oral gavage) [%] | Average % p-STAT3 (Tyr 705) of vehicle (p-STAT3 (Tyr 705); 75 mg/kg per oral gavage) [%] | Average % p-STAT3 (Tyr 705) of vehicle (p-STAT3 (Tyr 705); 100 mg/kg per oral gavage) [%] | IC50 [2] [µM] | inhibition of the biomarker p-SMAD2 ([1]; seventy-five milligrams per kilogram) [%]
Cc1nn(CC(F)(F)F)cc1Nc1cc(Nc2cnnc3c(C)cccc23)ccn1 [Compound 01, N2-[3-methyl-1-(2,2,2-trifluoroethyl)-1H-pyrazol-4-yl]-N4-(8-methylcinnolin-4-yl)pyridine-2,4-diamine] | 97 | 33 | 13 | 8 | seventy-five | 92 | 70 | 66 | 76 | < 0.2 | 
Clc1cccc2c(Nc3ccnc(Nc4cccc(N5CCOCC5)c4)c3)cnnc12 [Compound 04, N4-(8-chlorocinnolin-4-yl)-N2-[3-(morpholin-4-yl)phenyl]pyridine-2,4-diamine] | 69 | 13 | 6 | 7 | fifty | 88 | 73 | 59 | 97 | < 0.2 | 94
Cc1cccc2c(Nc3ccnc(Nc4ccc(N5CCOCC5)cc4)c3)cnnc12 [Compound 05, N4-(8-methylcinnolin-4-yl)-N2-[4-(morpholin-4-yl)phenyl]pyridine-2,4-diamine] | 136 | 74 | 11 | 13 |  | 107 | 85 | 77 | 93 |  | 
Cc1cccc(-c2[nH]c(CNc3ccccc3F)nc2-c2ccc3ncnn3c2)n1 [Vactosertib, vactosertib, reference compound] |  |  | 32 |  |  |  |  | 63 |  | < 0.2 | 
